Data as given in patent US6608176B2, “Taste receptor for umami (monosodium glutamate) taste” (University of Miami, priority 2000, dated 2003).
Read-outs that look alike come from different tables or passages of the source.

What was measured:
brain-mGluR4 [1] = molecular target: T1, brain-mGluR4 (Rattus norvegicus, UniProt P31423); conditions: cited from earlier work
T1 construct: Full-length cDNAs for brain-mGluR4 and taste-mGluR4 were reconstructed; expressed in transfected cells

taste-mGluR4 = molecular target: T2, taste-mGluR4 (Rattus norvegicus, UniProt P31423); assay: Suppression of forskolin-stimulated cAMP in CHO cells stably expressing taste-mGluR4; assay type: cell-based
T2 construct: expressed in transfected cells
Procedure: (§1) CHO cells were transfected with brain-mGluR4 and taste-mGluR4 constructs and with non-recombinant pcDNA3.1 vector, all in parallel, using a cationic lipid, DMRIE-C (Gibco-BRL). Cells with stably integrated plasmid were selected and maintained in 300 μg per ml G418 starting 24 h after transfection. The medium consisted of Dulbecco's Modified Eagle Medium (D-MEM) supplemented with 10% fetal bovine serum, 2 mM glutamine, 1.7 mM proline and 100 units per ml penicillin-streptomycin^35. Clones were lifted within two weeks and screened for expression by western blot analysis. A single clone for each form was propagated for functional assays. Stably transfected but non-clonal lines of cells from independent transfections with both forms of mGluR4 and non-recombinant vector were also maintained and used in functional assays.
(§2) CHO cells, stably transfected with brain-mGluR4, taste-mGluR4 or non-recombinant pcDNA3.1, were maintained as sub-confluent cultures and refed every two days to minimize chronic stimulation of expressed receptors by glutamate released from dead cells. Cells were plated 20 h before assay in a 96-well microtiter plate at 2×10^4 cells per 200 μl well. Fresh medium was replaced for one hour immediately before assaying receptor function as described^35. Briefly, cells were incubated in Dulbecco's phosphate buffered saline containing 1 mM IBMX for 20 min followed by stimulation for 10 min in 10 μM forskolin and 1 mM IBMX, with or without agonists. Stimulation buffer was rapidly removed, and cells were lysed in 200 μl 0.25% dodecyltrimethyl-ammonium bromide in 50 mM acetate buffer (Amersham, Piscataway, N.J.). Released cAMP in 20% of each lysate was assayed directly using an Amersham EIA-based kit and plotted as mean±s.e. of 3-6 experiments, each performed with triplicate wells of cells.
(§3) In transfected CHO cells, activation of group III mGluRs leads to a suppression of forskolin-stimulated cAMP synthesis^35. […] Thus, two separate lines of CHO cells expressing taste-mGluR4 were examined.

brain-mGluR4 [2] = molecular target: T1, brain-mGluR4; assay: Suppression of forskolin-stimulated cAMP in CHO cells stably expressing brain-mGluR4; assay type: cell-based
Procedure: as §1, §2, §3

[3] = test system: CHO cells transfected with non-recombinant pcDNA3.1 vector; assay: cAMP level in control CHO cells transfected with non-recombinant vector; assay type: cell-based, Chinese hamster; conditions: for change of cAMP concentration in control cells: non-recombinant vector; for cAMP level relative to controls: n=9
Procedure: as §1, §2

MSG taste detection = conditions: rats, behavioral assays; cited from earlier work
[4] = test system: glossopharyngeal nerve / sensory afferents; conditions: cited from earlier work
chorda tympani nerve = chorda tympani nerve recordings; cited from earlier work

T1 sequence (P31423 33-912): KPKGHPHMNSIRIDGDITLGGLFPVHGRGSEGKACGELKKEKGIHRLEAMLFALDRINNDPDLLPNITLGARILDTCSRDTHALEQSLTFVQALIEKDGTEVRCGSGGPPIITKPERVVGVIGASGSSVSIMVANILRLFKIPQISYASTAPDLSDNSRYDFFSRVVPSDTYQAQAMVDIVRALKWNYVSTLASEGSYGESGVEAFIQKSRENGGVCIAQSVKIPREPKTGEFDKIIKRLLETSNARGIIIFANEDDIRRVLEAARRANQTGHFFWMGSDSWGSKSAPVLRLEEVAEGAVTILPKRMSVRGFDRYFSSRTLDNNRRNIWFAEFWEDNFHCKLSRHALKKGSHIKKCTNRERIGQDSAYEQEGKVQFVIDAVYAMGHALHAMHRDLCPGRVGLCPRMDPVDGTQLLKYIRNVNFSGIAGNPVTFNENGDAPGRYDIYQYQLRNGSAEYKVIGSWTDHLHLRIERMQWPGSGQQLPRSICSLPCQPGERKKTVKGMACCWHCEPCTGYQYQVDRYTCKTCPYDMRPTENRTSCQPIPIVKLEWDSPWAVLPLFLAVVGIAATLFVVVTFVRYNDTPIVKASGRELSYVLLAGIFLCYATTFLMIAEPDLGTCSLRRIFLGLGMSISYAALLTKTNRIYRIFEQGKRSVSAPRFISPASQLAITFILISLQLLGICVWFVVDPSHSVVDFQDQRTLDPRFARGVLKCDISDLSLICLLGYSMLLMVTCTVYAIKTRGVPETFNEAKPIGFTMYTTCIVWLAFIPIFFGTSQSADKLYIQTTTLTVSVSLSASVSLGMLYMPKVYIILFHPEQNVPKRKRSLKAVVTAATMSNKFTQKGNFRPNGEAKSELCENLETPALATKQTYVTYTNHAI
T2 sequence (P31423 309-912): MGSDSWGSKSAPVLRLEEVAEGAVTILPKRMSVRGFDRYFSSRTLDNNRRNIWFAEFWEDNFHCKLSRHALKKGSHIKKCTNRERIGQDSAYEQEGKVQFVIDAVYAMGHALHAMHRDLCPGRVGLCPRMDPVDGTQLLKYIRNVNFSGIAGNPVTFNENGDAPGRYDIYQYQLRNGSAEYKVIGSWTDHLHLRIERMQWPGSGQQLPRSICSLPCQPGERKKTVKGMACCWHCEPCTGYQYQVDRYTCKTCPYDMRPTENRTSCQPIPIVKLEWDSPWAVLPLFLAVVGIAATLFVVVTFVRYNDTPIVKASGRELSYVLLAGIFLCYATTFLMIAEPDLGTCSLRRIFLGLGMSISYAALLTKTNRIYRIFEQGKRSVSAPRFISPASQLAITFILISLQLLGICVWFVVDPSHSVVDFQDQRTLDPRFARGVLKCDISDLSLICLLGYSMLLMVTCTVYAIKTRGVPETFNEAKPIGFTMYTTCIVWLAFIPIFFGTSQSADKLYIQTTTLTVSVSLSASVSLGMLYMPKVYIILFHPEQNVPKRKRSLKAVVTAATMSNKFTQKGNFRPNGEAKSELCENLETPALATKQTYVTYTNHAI

NC(CCP(=O)(O)O)C(=O)O [L-AP4]
EC50 (brain-mGluR4 [1]; brain mGluR4, literature ref 35, read-out: published EC50): 0.5 to 1 µM
cAMP response (taste-mGluR4; 10 μM L-AP4): no response
cAMP response (taste-mGluR4; 100 μM and 1 mM L-AP4): progressively larger responses
concentration above which the cAMP response saturates (brain-mGluR4 [2]; brain-mGluR4 CHO cells, FIG. 4): above 10 μM
change of cAMP concentration in control cells [3]: did not change
concentration near the MSG taste detection threshold (MSG taste detection): ~100 µM

N[C@H](CCC(=O)O)C(=O)O [D-glutamate]
cAMP level relative to controls (taste-mGluR4; 1 MM D-glutamate, taste-mGluR4 cells): 99±3%
cAMP level relative to controls (brain-mGluR4 [2]; 1 MM D-glutamate, brain-mGluR4 cells): 126±17%
change of cAMP concentration in control cells [3]: did not alter cAMP concentrations

N[C@@H](CCC(=O)O)C(=O)[O-].[Na+] [L-MSG, monosodium L-glutamate]
detection threshold in recordings from sensory afferents ([4]; adult rodents): 1 to 3 mM
detection threshold in recordings from sensory afferents ([4]; juvenile rodents): 0.1 to 0.3 mM

N[C@@H](CCC(=O)O)C(=O)O [L-glutamate]
EC50 (brain-mGluR4 [1]; mGluR4a, literature ref 35, read-out: EC50 on mGluR4a, earlier reports): 5 µM
threshold concentration for activating taste-mGluR4 (taste-mGluR4; CHO cells expressing taste-mGluR4): 30 µM
EC50 (taste-mGluR4; CHO cells expressing taste-mGluR4, 10 μM forskolin, 1 mM IBMX, read-out: EC50 for L-glutamate for taste-mGluR4): 280 µM
concentration needed for taste mGluR4 relative to brain-derived neurotransmitter mGluR4 (taste-mGluR4; CHO cells, taste vs brain mGluR4): about 100 fold
cAMP response (taste-mGluR4; at concentrations of 30 μM or below): no response
EC50 (taste-mGluR4; line with expression 2-fold lower than parallel brain-mGluR4 line, read-out: EC50, taste-mGluR4 CHO line): 250 µM
EC50 (taste-mGluR4; line with expression 100-fold lower than parallel brain-mGluR4 line, read-out: EC50, taste-mGluR4 CHO line): 300 µM
EC50 (brain-mGluR4 [2]; CHO cells stably expressing brain-mGluR4, 10 μM forskolin, 1 mM IBMX): 2 µM
taste nerve threshold ([4]; adult mice and rats): 2 to 10 mM
threshold for glutamate taste responses in the glossopharyngeal nerve ([4]; juvenile mice): 100 µM
cAMP level relative to controls ([3]; 1 mM): 127±16%
cAMP level relative to controls ([3]; 10 mM): 132±19%

C[C@](N)(CCP(=O)(O)O)C(=O)O [MAP4]
block of taste nerve responses to glutamate and L-AP4 (chorda tympani nerve): fails to block
